Measurements: ChEMBL document CHEMBL1140019, “Primary amides as selective inhibitors of cathepsin K” (Bioorg Med Chem Lett, 2007)

Assays:
Homo sapiens [1] = species on record: Homo sapiens; assay: Selectivity for humanized cathepsin K over human cathepsin L
Homo sapiens [2] = species on record: Homo sapiens; assay: Selectivity for humanized cathepsin K over human cathepsin S

Structure (SMILES) | Ratio IC50 (Homo sapiens [1]) | Ratio IC50 (Homo sapiens [2])
CSCC[C@H](NC(=O)[C@H](CC(C)C)N[C@@H](c1ccc(-c2ccc(S(C)(=O)=O)cc2)cc1)C(F)(F)F)C(N)=O | 4300 | 
CC(C)C[C@H](N[C@@H](c1ccc(-c2ccc(S(C)(=O)=O)cc2)cc1)C(F)(F)F)C(=O)NCC(N)=O |  | 170
CC(C)C[C@H](N[C@@H](c1ccc(-c2ccc(S(C)(=O)=O)cc2)cc1)C(F)(F)F)C(=O)N[C@@H](Cc1ccccc1)C(N)=O | 1700 | 
